Where “and” joins values, the source holds several entries; their conditions need not be identical. Identical values can stand only once. Toxic doses and inconclusive results are not listed.
Test system: CD2F1 mice, L1210 leukemia ip, survival T/C
Assay: NCI In Vivo Anticancer Drug Screen. Data for tumor model L1210 Leukemia (intraperitoneal) in CD2F1 (CDF1) mice
Conditions: higher = longer survival
How it was run: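 Tumor-bearing mice (transplanted tumor) were split into treated and vehicle control groups, and the measured endpoint of each treated group was divided by that of its vehicle controls.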

[1] = endpoint: mean survival time, dose: 25.0 mg/kg/injection, schedule: Q01DX009 (ip), vehicle: saline with Tween-80
[2] = endpoint: mean survival time, dose: 100.0 mg/kg/injection, schedule: Q01DX009 (ip), vehicle: saline with Tween-80
[3] = endpoint: mean survival time, dose: 200.0 mg/kg/injection, schedule: Q01DX009 (ip), vehicle: saline with Tween-80
[4] = endpoint: mean survival time, dose: 400.0 mg/kg/injection, schedule: Q01DX009 (ip), vehicle: saline with Tween-80
[5] = endpoint: mean survival time, dose: 100.0 mg/kg/injection, schedule: Q04DX003 (ip), vehicle: saline
[6] = endpoint: mean survival time, dose: 200.0 mg/kg/injection, schedule: Q04DX003 (ip), vehicle: saline
[7] = endpoint: mean survival time, dose: 400.0 mg/kg/injection, schedule: Q04DX003 (ip), vehicle: saline
[8] = endpoint: mean survival time, dose: 100.0 mg/kg/injection, schedule: Q04DX003 (ip), vehicle: saline with Tween-80
[9] = endpoint: mean survival time, dose: 200.0 mg/kg/injection, schedule: Q04DX003 (ip), vehicle: saline with Tween-80
[10] = endpoint: mean survival time, dose: 400.0 mg/kg/injection, schedule: Q04DX003 (ip), vehicle: saline with Tween-80
[11] = endpoint: mean survival time, dose: 100.0 mg/kg/injection, schedule: Q04DX002 (ip), vehicle: saline with Tween-80
[12] = endpoint: mean survival time, dose: 200.0 mg/kg/injection, schedule: Q04DX002 (ip), vehicle: saline with Tween-80
[13] = endpoint: mean survival time, dose: 400.0 mg/kg/injection, schedule: Q01DX001 (ip), vehicle: saline with Tween-80

With `O=C(NC1CCCCC1)OCc1c(COC(=O)NC2CCCCC2)c(-c2ccc(Cl)c(Cl)c2)n2c1CCC2` the T/C (endpoint: mean survival time, dose: 12.5 mg/kg/injection, schedule: Q01DX009 (ip), vehicle: saline with Tween-80) was 119 % of control and 112 % of control, the T/C [1] was 112 % of control and the T/C [2] was 122 % of control. For the same molecule, the T/C [3] was 151 % of control and 157 % of control and the T/C [4] was 121 % of control and 97 % of control.

With `Cc1ccc(-n2nc(C3OCC(O)C3O)c3nc4cc(C)c(C)cc4nc32)cc1` (stereo unspecified) the T/C (endpoint: median survival time, dose: 10.0 mg/kg/injection, schedule: Q01DX005 (ip), vehicle: distilled water + Tween-80) was 98 % of control, the T/C (endpoint: median survival time, dose: 20.0 mg/kg/injection, schedule: Q01DX005 (ip), vehicle: distilled water + Tween-80) was 97 % of control and the T/C (endpoint: median survival time, dose: 40.0 mg/kg/injection, schedule: Q01DX005 (ip), vehicle: distilled water + Tween-80) was 103 % of control. For the same molecule, the T/C (endpoint: median survival time, dose: 80.0 mg/kg/injection, schedule: Q01DX005 (ip), vehicle: distilled water + Tween-80) was 97 % of control and the T/C (endpoint: median survival time, dose: 160.0 mg/kg/injection, schedule: Q01DX005 (ip), vehicle: distilled water + Tween-80) was 98 % of control.

`CCCCn1c(Cc2ccccc2)nc2c1C(=O)c1ccccc1C2=O` was tested, and the T/C [5] was 103 % of control, the T/C [6] was 101 % of control and the T/C [7] was 98 % of control.

For `COc1cc(OC)c(OC)cc1Br`, the T/C (endpoint: mean survival time, dose: 100.0 mg/kg/injection, schedule: Q01DX009 (ip), vehicle: saline sonified) was 101 % of control, the T/C [8] was 102 % of control and the T/C (endpoint: mean survival time, dose: 200.0 mg/kg/injection, schedule: Q01DX009 (ip), vehicle: saline sonified) was 97 % of control. For the same molecule, the T/C [9] was 102 % of control, the T/C (endpoint: mean survival time, dose: 400.0 mg/kg/injection, schedule: Q01DX009 (ip), vehicle: saline sonified) was 97 % of control and the T/C [10] was 102 % of control.

`Nc1ccc(S(=O)(=O)c2ccc(NCC(=O)O)cc2)cc1` was tested, and the T/C [5] was 100 % of control, the T/C [6] was 100 % of control and the T/C [7] was 100 % of control.

For `C=CC1C[N+]2(SS(=O)(=O)O)CCC1CC2C(O)c1ccnc2ccc(OC)cc12` (stereo unspecified), the T/C (endpoint: mean survival time, dose: 75.0 mg/kg/injection, schedule: Q04DX003 (ip), vehicle: saline) was 100 % of control and the T/C (endpoint: mean survival time, dose: 150.0 mg/kg/injection, schedule: Q04DX003 (ip), vehicle: saline) was 95 % of control.

For `O=c1oc(-c2ccccc2)nc2c(Cl)ccc(Cl)c12`, the T/C (endpoint: mean survival time, dose: 90.0 mg/kg/injection, schedule: Q04DX003 (ip), vehicle: other) was 107 % of control, the T/C (endpoint: mean survival time, dose: 135.0 mg/kg/injection, schedule: Q04DX003 (ip), vehicle: other) was 97 % of control and the T/C (endpoint: mean survival time, dose: 200.0 mg/kg/injection, schedule: Q04DX003 (ip), vehicle: other) was 119 % of control. The T/C (endpoint: mean survival time, dose: 300.0 mg/kg/injection, schedule: Q04DX003 (ip), vehicle: other) was 102 % of control.

In the case of `O=c1c2cccc3cccc(c4n1NC=c1ccccc1=4)c32`, the T/C (endpoint: mean survival time, dose: 25.0 mg/kg/injection, schedule: Q04DX002 (ip), vehicle: saline with Tween-80) is reported as 100 % of control, the T/C (endpoint: mean survival time, dose: 50.0 mg/kg/injection, schedule: Q04DX002 (ip), vehicle: saline with Tween-80) is reported as 92 % of control and the T/C [11] is reported as 96 % of control. For the same molecule, the T/C [12] was 96 % of control.

For `CC(C)(CC(=O)Nc1ccccc1)C(=O)O`, the T/C [2] was 98 % of control and 100 % of control, the T/C [3] was 96 % of control and 100 % of control and the T/C [4] was 96 % of control and 102 % of control.

`CC(=O)C1CCC2c3cc4c(c(C)c3CCC12C)CCC(OC(=O)C1CCCCC1)C4` (stereo unspecified) was tested, and the T/C [8] was 101 % of control, the T/C [9] was 101 % of control and the T/C [10] was 104 % of control.

`CCCC(=O)Oc1ccc(/C=N/NC(N)=S)nc1` was tested, and the T/C [2] was 182 % of control, the T/C [11] was 115 % of control and the T/C (endpoint: mean survival time, dose: 178.0 mg/kg/injection, schedule: Q01DX001 (ip), vehicle: saline with Tween-80) was 116 % of control. For the same molecule, the T/C (endpoint: mean survival time, dose: 178.0 mg/kg/injection, schedule: Q04DX003 (ip), vehicle: saline with Tween-80) was 118 % of control, the T/C [3] was 119 % of control and the T/C (endpoint: mean survival time, dose: 266.0 mg/kg/injection, schedule: Q01DX001 (ip), vehicle: saline with Tween-80) was 113 % of control. The T/C (endpoint: mean survival time, dose: 266.0 mg/kg/injection, schedule: Q04DX003 (ip), vehicle: saline with Tween-80) was 121 % of control, the T/C [13] was 95 % of control and the T/C [10] was 117 % of control. For the same molecule, the T/C (endpoint: mean survival time, dose: 600.0 mg/kg/injection, schedule: Q01DX001 (ip), vehicle: saline with Tween-80) was 124 % of control, the T/C (endpoint: mean survival time, dose: 900.0 mg/kg/injection, schedule: Q01DX001 (ip), vehicle: saline with Tween-80) was 161 % of control and the T/C (endpoint: median survival time, dose: 36.0 mg/kg/injection, schedule: Q01DX005 (ip), vehicle: saline with Tween-80) was 151 % of control. For the same molecule, the T/C (endpoint: median survival time, dose: 50.0 mg/kg/injection, schedule: Q01DX009 (ip), vehicle: saline with Tween-80) was 172 % of control, the T/C (endpoint: median survival time, dose: 60.0 mg/kg/injection, schedule: Q01DX005 (ip), vehicle: saline with Tween-80) was 160 % of control and the T/C (endpoint: median survival time, dose: 100.0 mg/kg/injection, schedule: Q01DX005 (ip), vehicle: saline with Tween-80) was 162 % of control. The T/C (endpoint: median survival time, dose: 100.0 mg/kg/injection, schedule: Q01DX009 (ip), vehicle: saline with Tween-80) was 156 % of control and 247 % of control, the T/C (endpoint: median survival time, dose: 166.67 mg/kg/injection, schedule: Q01DX005 (ip), vehicle: saline with Tween-80) was 112 % of control and the T/C (endpoint: median survival time, dose: 200.0 mg/kg/injection, schedule: Q01DX009 (ip), vehicle: saline with Tween-80) was 164 % of control and 190 % of control. The T/C (endpoint: median survival time, dose: 400.0 mg/kg/injection, schedule: Q01DX009 (ip), vehicle: saline with Tween-80) was 113 % of control and 107 % of control.

`Cc1ccc([N+](=O)[O-])cc1NC(=O)NNC(=O)CNC(=O)NCc1ccco1` was tested, and the T/C [2] was 91 % of control, the T/C [3] was 89 % of control and the T/C [4] was 97 % of control.

For `CC1=CCC(O)(C(C)C)CC1` (stereo unspecified), the T/C [5] was 96 % of control, the T/C [6] was 98 % of control and the T/C [7] was 102 % of control.

`Cc1ccc(N2CCOC2=O)cc1N1CCOC1=O` was tested, and the T/C (endpoint: mean survival time, dose: 25.0 mg/kg/injection, schedule: Q01DX009 (ip), vehicle: other) was 100 % of control, the T/C (endpoint: mean survival time, dose: 50.0 mg/kg/injection, schedule: Q01DX009 (ip), vehicle: other) was 105 % of control and the T/C (endpoint: mean survival time, dose: 100.0 mg/kg/injection, schedule: Q01DX009 (ip), vehicle: other) was 102 % of control.

With `CCCCCN1C(=O)CCC1=O` the T/C [8] was 112 % of control, the T/C [9] was 109 % of control and the T/C [10] was 104 % of control.

`O=C(NCCCCCCNC(=O)N1CC1)N1CC1` was tested, and the T/C (endpoint: mean survival time, dose: 0.4 mg/kg/injection, schedule: Q01DX001 (ip), vehicle: saline) was 109 % of control, the T/C (endpoint: mean survival time, dose: 0.8 mg/kg/injection, schedule: Q01DX001 (ip), vehicle: saline) was 118 % of control and the T/C (endpoint: mean survival time, dose: 1.7 mg/kg/injection, schedule: Q01DX001 (ip), vehicle: saline) was 114 % of control.

For `C/C(=C\C(=O)c1ccccc1)OB(F)F`, the T/C [2] was 98 % of control and 100 % of control, the T/C [3] was 110 % of control and 100 % of control and the T/C [4] was 100 % of control.

In the case of `COc1ccc(N=C(N)N=C(N)N)cc1`, the T/C [1] is reported as 102 % of control, the T/C (endpoint: mean survival time, dose: 50.0 mg/kg/injection, schedule: Q01DX009 (ip), vehicle: saline with Tween-80) is reported as 96 % of control and the T/C [2] is reported as 106 % of control.

For `O=C(O)COc1ccc(Cl)cc1Cl.[Cr]`, the T/C [11] was 94 % of control, the T/C [12] was 87 % of control and the T/C (endpoint: mean survival time, dose: 400.0 mg/kg/injection, schedule: Q04DX002 (ip), vehicle: saline with Tween-80) was 102 % of control.

In the case of `CCOC(=O)c1cc(Cl)cc(Cl)c1N=NN(C)C`, the T/C (endpoint: mean survival time, dose: 25.0 mg/kg/injection, schedule: Q01DX009 (ip), vehicle: saline) is reported as 93 % of control, the T/C (endpoint: mean survival time, dose: 50.0 mg/kg/injection, schedule: Q01DX009 (ip), vehicle: saline) is reported as 93 % of control and the T/C (endpoint: mean survival time, dose: 100.0 mg/kg/injection, schedule: Q01DX009 (ip), vehicle: saline) is reported as 100 % of control. For the same molecule, the T/C (endpoint: mean survival time, dose: 200.0 mg/kg/injection, schedule: Q01DX009 (ip), vehicle: saline) was 97 % of control.

`CCN(CC)CC[C-]=O.[NH-]CC[NH-].[Pd]` was tested, and the T/C (endpoint: mean survival time, dose: 3.13 mg/kg/injection, schedule: Q04DX003 (ip), vehicle: water) was 101 % of control, the T/C (endpoint: mean survival time, dose: 6.25 mg/kg/injection, schedule: Q04DX003 (ip), vehicle: water) was 101 % of control and the T/C (endpoint: mean survival time, dose: 12.5 mg/kg/injection, schedule: Q04DX003 (ip), vehicle: water) was 101 % of control. The T/C (endpoint: mean survival time, dose: 25.0 mg/kg/injection, schedule: Q04DX003 (ip), vehicle: water) was 93 % of control and the T/C (endpoint: mean survival time, dose: 50.0 mg/kg/injection, schedule: Q04DX003 (ip), vehicle: water) was 93 % of control.

For `COc1cc(Cl)c(CCBr)cc1OC`, the T/C (endpoint: mean survival time, dose: 50.0 mg/kg/injection, schedule: Q01DX009 (ip), vehicle: Klucel (hydroxypropylcellulose) (HPC)) was 104 % of control, the T/C (endpoint: mean survival time, dose: 100.0 mg/kg/injection, schedule: Q01DX009 (ip), vehicle: Klucel (hydroxypropylcellulose) (HPC)) was 89 % of control and the T/C (endpoint: mean survival time, dose: 200.0 mg/kg/injection, schedule: Q01DX009 (ip), vehicle: Klucel (hydroxypropylcellulose) (HPC)) was 96 % of control.

With `CC1CC(O)C(NC(=O)NCCCl)C(O)C1` (stereo unspecified) the T/C (endpoint: mean survival time, dose: 100.0 mg/kg/injection, schedule: Q01DX001 (ip), vehicle: saline with Tween-80) was 102 % of control, the T/C (endpoint: mean survival time, dose: 200.0 mg/kg/injection, schedule: Q01DX001 (ip), vehicle: saline with Tween-80) was 102 % of control and the T/C [13] was 110 % of control.
